Among the data in PubChem BioAssay (NCI) are GI50 and TGI values, retold here.

Test systems include CCRF-CEM leukemia; UACC-257 melanoma; COLO 205 colon; KM12 colon; MCF7 breast; CAKI-1 renal; HCT-116 colon; RXF 393 renal; SR leukemia; TK-10 renal.
Assay in all cases: growth of human tumour cells (NCI), 48 h

SMILES strings stand for the structures.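 Interpolation was linear, between the two tested concentrations surrounding the appropriate level; five concentrations were tested over 48 hours in 96-well plates. GI50 = concentration required for 50% inhibition of growth. TGI denotes the concentration required for complete inhibition of growth.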

Consider `OCc1ccc(N(Cc2ccc(F)cc2)Cc2ccc(F)cc2)cc1Cl`, for which the GI50 was 13.1 µM with CCRF-CEM leukemia; 3.74 µM in the assay on UACC-257 melanoma; 11.7 µM in the assay with COLO 205 colon; 10.5 µM with KM12 colon; 3.72 µM in the assay with MCF7 breast; 1700 nM in the assay with CAKI-1 renal. The GI50 was 2870 nM in the assay with HCT-116 colon, 12.7 µM with RXF 393 renal, 5.51 µM with SR leukemia and 2080 nM in the assay on TK-10 renal. Further, the TGI came to 33.9 µM with CCRF-CEM leukemia; 15.6 µM in the assay with UACC-257 melanoma; 24.4 µM in the assay with COLO 205 colon; 23.8 µM in the assay with KM12 colon; 17 µM in the assay with MCF7 breast; 5.87 µM in the assay on CAKI-1 renal. Also, the TGI worked out at 10.8 µM with HCT-116 colon, 26.3 µM in the assay on RXF 393 renal, 24.4 µM with SR leukemia and 11.2 µM in the assay with TK-10 renal.

On to `Cc1ccc(/C(=N/Nc2ccc([N+](=O)[O-])cc2)Sc2cc(Cl)c(C)cc2S(N)(=O)=O)cc1`, for which the GI50 with CCRF-CEM leukemia is 2.11 µM; with UACC-257 melanoma, 6.45 µM; in the assay on COLO 205 colon, 2.98 µM; with KM12 colon, 1.37 µM; in the assay with MCF7 breast it was 2.6 µM; in the assay on CAKI-1 renal it was 1610 nM. The GI50 is 1130 nM in the assay on HCT-116 colon, 2.01 µM in the assay with RXF 393 renal, 0.945 µM in the assay with SR leukemia and 1610 nM in the assay with TK-10 renal. The TGI is 4.58 µM in the assay with CCRF-CEM leukemia; 18.8 µM in the assay with UACC-257 melanoma; over 23.2 µM in the assay with COLO 205 colon; 3.18 µM in the assay with KM12 colon; over 21.5 µM in the assay on MCF7 breast; 3.27 µM in the assay with CAKI-1 renal. The TGI with HCT-116 colon was found to be 2.34 µM; in the assay on RXF 393 renal it was 6.52 µM; in the assay with SR leukemia it was 3.55 µM; in the assay with TK-10 renal, 3.38 µM.

Consider `O=C(Nc1n[nH]c2cc(-c3cc(F)ccc3F)ccc12)C1CC1`, for which the GI50 in the assay with CCRF-CEM leukemia was 10.5 µM; with UACC-257 melanoma it was over 25 µM; in the assay on COLO 205 colon it was 13.1 µM; in the assay on KM12 colon it was 8.08 µM; in the assay on MCF7 breast, 7.43 µM; in the assay on CAKI-1 renal, over 20900 nM. In addition, the GI50 was 9780 nM with HCT-116 colon, 17.3 µM in the assay on RXF 393 renal, 6.38 µM with SR leukemia and over 25000 nM in the assay with TK-10 renal. The TGI was over 25 µM with CCRF-CEM leukemia; over 25 µM with UACC-257 melanoma; over 25 µM with COLO 205 colon; over 25 µM in the assay with KM12 colon; over 19.8 µM with MCF7 breast; over 25 µM in the assay with CAKI-1 renal. Moreover, the TGI with HCT-116 colon, with RXF 393 renal, with SR leukemia and with TK-10 renal was over 25 µM in each case.
